Test results: patent publication US20210107871A1 (priority 2017, published 2021)

Tested on: pseudotype VSV (expressing GFP) having the surface glycoprotein of Ebola virus (zaire sp.)
Test: microbe, parasite or virus in culture
Type: cell-based
Details: for activity at 0.312 µM / activity at 0.625 µM / activity at 1.25 µM / activity at 2.5 µM / activity at 5 µM / activity at 0.005 µM / activity at 0.02 µM / activity at 0.078 µM: Vesicular stomatitis virus, Vero C1008, 18 h, read-out: Viral Infection rate (%); for activity at 0.312 µM: Compound Conc. 0.312 μM; for activity at 0.625 µM: Compound Conc. 0.625 μM; for activity at 1.25 µM: Compound Conc. 1.25 μM; for activity at 2.5 µM: Compound Conc. 2.5 μM; for activity at 0.005 µM: Compound Conc. 0.005 μM; for activity at 0.02 µM: Compound Conc. 0.020 μM; for activity at 0.078 µM: Compound Conc. 0.078 μM

## CCN(CC)CCCN(c1ccc(OC)cc1[N+](=O)[O-])S(=O)(=O)c1ccccc1 [4-1, N-[3-(diethylamino)propyl]-N-(4-methoxy-2-nitro-phenyl)benzensulfonamide]
  activity at 0.312 µM: 87.5%
  activity at 0.625 µM: ~38%
  activity at 1.25 µM: ~12%
  activity at 2.5 µM: 2.83%
Compound Conc. 5 μM
  activity at 5 µM: 1.83%

## CCN(CC)CCCN(c1ccc(OC)cc1[N+](=O)[O-])S(=O)(=O)c1ccc(F)cc1 [4-3, 4-fluoro-N-[3-(diethylamino)propyl]-N-(4-methoxy-2-nitro-phenyl)benzensulfonamide]
  activity at 0.312 µM: 105%
  activity at 0.625 µM: 88.1%
  activity at 1.25 µM: 52.8%
  activity at 2.5 µM: 18.4%
Compound Conc. 5 μM
  activity at 5 µM: 3.8%

## CCN(CC)CCCN(c1ccc(OC)cc1[N+](=O)[O-])S(=O)(=O)c1cccc(F)c1 [4-4, 3-fluoro-N-[3-(diethylamino)propyl]-N-(4-methoxy-2-nitro-phenyl)benzensulfonamide]
  activity at 0.312 µM: 84.4%
  activity at 0.625 µM: 71.3%
  activity at 1.25 µM: 29.7%
  activity at 2.5 µM: 8.13%
Compound Conc. 5 μM
  activity at 5 µM: 2.05%

## CCN(CC)CCCN(c1ccc(OC)cc1[N+](=O)[O-])S(=O)(=O)c1ccccc1F [4-5, 2-fluoro-N-[3-(diethylamino)propyl]-N-(4-methoxy-2-nitro-phenyl)benzensulfonamide]
  activity at 0.625 µM: 94.2%
  activity at 1.25 µM: 54.9%
Compound Conc. 5 μM
  activity at 5 µM: 3.18%

## CCN(CC)CCCN(c1ccc(OC)cc1[N+](=O)[O-])S(=O)(=O)c1cccc(C)c1 [4-6, 3-methyl-N-[3-(diethylamino)propyl]-N-(4-methoxy-2-nitro-phenyl)benzenesulfonamide]
  activity at 0.312 µM: 91.2%
  activity at 0.625 µM: 91.1%
  activity at 1.25 µM: 57.1%
  activity at 2.5 µM: 20.1%
Compound Conc. 5 μM
  activity at 5 µM: 3.8%

## CCN(CC)CCCN(c1ccc(OC)cc1[N+](=O)[O-])S(=O)(=O)c1ccccc1C [4-7, 2-methyl-N-[3-(diethylamino)propyl]-N-(4-methoxy-2-nitro-phenyl)benzensulfonamide]
  activity at 0.312 µM: 87.2%
  activity at 0.625 µM: 68.4%
  activity at 1.25 µM: 37%
  activity at 2.5 µM: 12.9%
Compound Conc. 5 μM
  activity at 5 µM: 5.08%

## CCN(CC)CCCN(c1ccccc1-c1ccccc1)S(=O)(=O)c1ccccc1 [4-8, N-[3-(diethylamino)propyl]-N-(2-phenyl-phenyl)benzensulfonamide]
  activity at 0.312 µM: 89%
  activity at 1.25 µM: 10.8%
  activity at 2.5 µM: 1.93%
Compound Conc. 5 μM
  activity at 5 µM: 1.11%

## CCN(CC)CCCN(c1ccc(OC)cc1[N+](=O)[O-])S(=O)(=O)c1cccc2ccccc12 [4-9, N-[3-(diethylamino)propyl]-N-(4-methoxy-2-nitro-phenyl)naphthalene-1-sulfonamide]
  activity at 0.312 µM: 82.5%
  activity at 0.625 µM: 58.6%
  activity at 1.25 µM: 20.8%
Compound Conc. 5 μM
  activity at 5 µM: 2.32%

## CCN(CC)CCCN(c1ccc(OC)cc1[N+](=O)[O-])S(=O)(=O)c1ccc2ccccc2c1 [4-10, N-[3-(diethylamino)propyl]-N-(4-methoxy-2-nitro-phenyl)naphthalene-2-sulfonamide]
  activity at 0.312 µM: 106%
  activity at 0.625 µM: 103%
  activity at 2.5 µM: 22.7%
Compound Conc. 5 μM
  activity at 5 µM: 3.57%

## CCN(CC)CCCN(c1ccc(OC)cc1[N+](=O)[O-])S(=O)(=O)c1ccc(OC)cc1 [4-11, 4-methoxy-N-[3-(diethylamino)propyl]-N-(4-methoxy-2-nitro-phenyl)benzensulfonamide]
  activity at 0.312 µM: 88.3%
Compound Conc. 5 μM
  activity at 5 µM: 2.09%

## CCN(CC)CCCN(c1ccccc1-c1ccccc1)S(=O)(=O)c1cccc2ccccc12 [4-13, N-[3-(diethylamino)propyl]-N-(2-phenyl-phenyl)naphthalene-1-sulfonamide]
  activity at 0.625 µM: 90.2%

## CCN(CC)CCCN(c1ccccc1-c1ccccc1)S(=O)(=O)c1ccc(OC)cc1 [4-14, 4-methoxy-N-[3-(diethylamino)propyl]-N-(2-phenyl-phenyl)benzensulfonamide]
  activity at 0.312 µM: 77.4%
  activity at 0.625 µM: 42.2%
  activity at 1.25 µM: 7.82%
Compound Conc. 5 μM
  activity at 5 µM: 0.83%

## COc1ccc(N(CC2CCN(C(=O)OC(C)(C)C)CC2)S(=O)(=O)c2ccccc2)c(-c2ccccc2)c1 [4-18, t-butyl-4-[[N-(benzenesulfonyl)-4-methoxy-2-phenyl-anilino]methyl]piperidine-1-carboxylate]
Compound Conc. 5 μM
  activity at 5 µM: 23.3%

## COc1ccc(N(CC2CCNCC2)S(=O)(=O)c2ccccc2)c(-c2ccccc2)c1 [4-19, N-(4-methoxy-2-phenyl-phenyl)-N-(4-piperidylmethyl)benzensulfonamide]
  activity at 0.312 µM: 83.3%
  activity at 0.625 µM: 78.5%
  activity at 1.25 µM: 52.3%
Compound Conc. 5 μM
  activity at 5 µM: 2.2%

## COc1ccc(N(CC2CCCN(C(=O)OC(C)(C)C)C2)S(=O)(=O)c2ccccc2)c(-c2ccccc2)c1 (stereo not drawn) [4-22, t-butyl-3-[[N-(benzenesulfonyl)-4-methoxy-2-phenyl-anilino]methyl]piperidine-1-carboxylate]
Compound Conc. 5 μM
  activity at 5 µM: ~8.7%

## COc1ccc(N(CC2CCCNC2)S(=O)(=O)c2ccccc2)c(-c2ccccc2)c1 (stereo not drawn) [4-23, N-(4-methoxy-2-phenyl-phenyl)-N-(3-piperidylmethyl)benzensulfonamide]
  activity at 0.312 µM: 100%
  activity at 2.5 µM: ~24.4%
Compound Conc. 5 μM
  activity at 5 µM: 1.79%

## CCN1CCCC(CN(c2ccc(OC)cc2-c2ccccc2)S(=O)(=O)c2ccccc2)C1 (stereo not drawn) [4-25]
  activity at 0.312 µM: 58.1%
  activity at 0.625 µM: 24.3%
  activity at 1.25 µM: 2.51%
  activity at 2.5 µM: 0.14%
Compound Conc. 5 μM
  activity at 5 µM: 0.14%

## CNCCCN(c1ccc(OC)cc1-c1ccccc1)S(=O)(=O)c1ccccc1 [4-30, N-(4-methoxy-2-phenyl-phenyl)-N-[3-(methylamino)propyl]-benzensulfonamide]
  activity at 0.005 µM: 92.6%
  activity at 0.02 µM: 91%
  activity at 0.078 µM: 78.1%
  activity at 0.625 µM: 80.8%
  activity at 2.5 µM: 4.17%

## COc1ccc(N(CCCNC(=O)OC(C)(C)C)S(=O)(=O)c2ccccc2)c(-c2ccccc2)c1 [4-31, t-butyl-N-[3-[N-(benzenesulfonyl)-4-methoxy-2-phenyl-anilino]propyl]carbamate]
  activity at 0.312 µM: ~100%
Compound Conc. 5 μM
  activity at 5 µM: 8.51%

## COc1ccc(N(CCCN)S(=O)(=O)c2ccccc2)c(-c2ccccc2)c1 [4-32, N-(3-aminopropyl)-N-(4-methoxy-2-phenyl-phenyl)benzensulfonamide]
  activity at 0.312 µM: 86%
  activity at 0.625 µM: 82.4%
  activity at 1.25 µM: 57.8%
  activity at 2.5 µM: 15.8%
Compound Conc. 5 μM
  activity at 5 µM: 0.47%

## COc1ccc(N(CCN(C)C)S(=O)(=O)c2ccccc2)c(-c2ccccc2)c1 [4-33, N-[3-(dimethylamimo)ethyl]-N-(4-methoxy-2-phenyl-phenyl)benzensulfonamide]
  activity at 0.312 µM: 81.1%
  activity at 0.625 µM: 71.3%
  activity at 1.25 µM: 17.1%
  activity at 2.5 µM: 1.51%
Compound Conc. 5 μM
  activity at 5 µM: 0.1%

## COc1ccc(N(CCN2CCOCC2)S(=O)(=O)c2ccccc2)c(-c2ccccc2)c1 [4-34, N-(4-methoxy-2-phenyl-phenyl)-N-(2-morpholinoethyl)benzensulfonamide]
  activity at 1.25 µM: 76.9%
  activity at 2.5 µM: 40.2%
Compound Conc. 5 μM
  activity at 5 µM: 4.56%

## COc1ccc(N(CCN2CCCCC2)S(=O)(=O)c2ccccc2)c(-c2ccccc2)c1 [4-35, N-(4-methoxy-2-phenyl-phenyl)-N-[2-(1-piperidyl)ethyl]benzensulfonamide]
  activity at 0.312 µM: 89.5%
  activity at 0.625 µM: 82.3%
  activity at 1.25 µM: 1.82%
  activity at 2.5 µM: 30.3%

## CCOc1ccc(N(CC2CCN(CC)CC2)S(=O)(=O)c2ccccc2)c(-c2ccccc2)c1 [4-39]
  activity at 0.005 µM: 98.4%
  activity at 0.02 µM: 103%
  activity at 1.25 µM: 116%

## COc1ccc(N(CC2CCCN(C)C2)S(=O)(=O)c2ccccc2)c(-c2ccccc2)c1 (stereo not drawn) [4-42]
Compound Conc. 5 μM
  Viral Infection rate (%): 0.00%
  activity at 5 µM: ~0%
  activity at 0.005 µM: 95.6%
  activity at 0.02 µM: 101%
  activity at 0.078 µM: 102%
  activity at 0.312 µM: 93%
  activity at 0.625 µM: 28.4%
  activity at 2.5 µM: 0.25%

## CCN1CCC(CN(c2ccc(C(C)C)cc2-c2ccccc2)S(=O)(=O)c2ccccc2)CC1 [4-45, N-(4-isopropyl-2-phenyl-phenyl)-N-(1-ethyl-4-piperidylmethyl)benzensulfonamide]
  activity at 0.005 µM: 90.8%
  activity at 0.02 µM: 101%
  activity at 0.078 µM: 104%
  activity at 0.312 µM: 103%
  activity at 1.25 µM: 69.5%
Compound Conc. 5 μM
  activity at 5 µM: 0.23%

## CCN1CCC(CN(c2ccc(C(C)(C)C)cc2-c2ccccc2)S(=O)(=O)c2ccccc2)CC1 [4-48, N-(4-t-butyl-2-phenyl-phenyl)-N-(1-ethyl-4-piperidylmethyl)benzensulfonamide]
  activity at 0.005 µM: 97.1%
  activity at 0.02 µM: 104%
  activity at 0.078 µM: 96.3%
Compound Conc. 5 μM
  activity at 5 µM: 47.6%

## CCN1CCC(CN(c2ccc(OC)cc2-c2ccc(F)cc2)S(=O)(=O)c2ccccc2)CC1 [4-51, N-[2-(4-fluorophenyl)-4-methoxy-phenyl)-N-(1-ethyl-4-piperidylmethyl)benzensulfonamide]
  activity at 0.005 µM: 92.2%
  activity at 0.02 µM: 84.5%
  activity at 0.078 µM: 45%
  activity at 0.312 µM: 11.9%
  activity at 1.25 µM: 0.51%
Compound Conc. 5 μM
  activity at 5 µM: 0%

## CCN1CCC(CN(c2ccc(OC)cc2-c2cccc(F)c2)S(=O)(=O)c2ccccc2)CC1 [4-54, N-[2-(3-fluorophenyl)-4-methoxy-phenyl)-N-(1-ethyl-4-piperidylmethyl)benzensulfonamide]
  activity at 0.02 µM: 90%
  activity at 0.078 µM: 74.5%
  activity at 0.312 µM: 28.6%
  activity at 1.25 µM: 0.1%
Compound Conc. 5 μM
  activity at 5 µM: 0%
